This test deals with cerebellar molecular layer interneurons. In words: Photolysis-evoked GABAergic currents in cerebellar molecular layer interneurons. The test is classed as cell-based. How it is done: The biological properties of our synthetic bis-CNB-GABA were evaluated using whole-cell patch recording from cerebellar molecular layer interneurons.
FIGS. 42A-42E illustrate physiological responses to photolysis of bis-CNB-GABA. FIG. 42A illustrates a cerebellar molecular layer interneuron visualized using Alexa 488 in the patch recording electrode solution. Referring to FIG. 42A, bis-CNB-GABA (0.6 mM) was photolyzed with a 405 nm laser spot in 3 different locations (indicated by 1, 2 and 3). Still referring to FIG. 42A, laser-evoked GABAergic currents are shown on the right panel. Still referring to FIG. 42A, gray traces show individual sweeps and black traces are averages. Still referring to FIG. 42A, the gray sweep at bottom indicates the laser flash (1 ms duration, intensity 5 mW) as recorded using a photodiode. FIG. 42B illustrates bis-CNB-GABA (1.4 mM) was photolyzed with a […] LED at progressively higher flash energies (0.25-1.1 mW, 5-50 ms, 1.25-55 μJ). FIG. 42C illustrates the same experiment as shown in FIG. 42B with Responses to mono-CNB-GABA (50 μM). FIG. 42D illustrates normalized current as a function of relative LED flash energies plotted on a log-log scale. FIG. 42E illustrates laser-evoked whole-cell current recorded in the absence and presence of 3 μM gabazine, a GABA receptor antagonist. Referring to FIG. 42E, a larger flash energy was used in the presence of gabazine.
Referring to FIG. 42A, molecular layer interneurons receive excitatory glutamatergic synapses, as well as inhibitory GABAergic synapses that show a pronounced level of spontaneous activity (gray traces). The effects of bis-CNB-GABA on these synaptic currents were tested.
By contrast, the relationship for mono-O-CNB-GABA was close to linear (log-log slope=1.3±0.1, n=3). For these measurements, evoked currents were normalized to the maximum current observed in the same neuron. […] These power laws are consistent with a process in which each molecule of bis-CNB-GABA must cumulatively undergo two uncaging reactions in order to release an active GABAA agonist.
To test whether bis-CNB-GABA-evoked responses resemble physiological events in their kinetics, we measured the kinetic properties of flash responses. […] This rise time is consistent with the dark reaction time (1.5 ms) for the slower cage, N-mono-CNB-GABA (Wieboldt, R.; Ramesh, D.; Carpenter, B. K; Hess, G. P. Biochemistry, 1994, 33, 1526-1533, which is incorporated herein by reference as if fully set forth). […] These rates approach those of spontaneous events and are among the fastest described for other GABA cages. […]

With `O=C(CCCNC(C(=O)O)c1ccccc1[N+](=O)[O-])OC(C(=O)O)c1ccccc1[N+](=O)[O-]` (centres unmarked) [bis-CNB-GABA, 2-((4-(Carboxy(2-nitrophenyl)methoxy)-4-oxobutyl)amino)-2-(2-nitrophenyl)acetic acid], where the note is “FIGS. 38A-38D”, the “rise time of GABA-induced currents upon photolysis” value was “approximately 2 ms”. In addition, where the note is “responses comparable in size with spontaneous IPSCs, flash 1.0 ms, n=10”, the “10-90% rise time of flash responses” value amounted to 2.2±0.6 ms.
